Here are results for 14 molecules from US9670231B2, “Fused tricyclic amide compounds as multiple kinase inhibitors” (BEIGENE, LTD., priority 2013, dated 2017).

Common to all, as to format: biochemical
The target of one test is WT EGFR kinase domain (Homo sapiens (Human), UniProt P00533). The test can be described thus: EGFR enzymatic assay, TR-FRET, WT EGFR. The protocol:
(§1) Compounds disclosed herein were tested against WT EGFR kinase domain (aa.669-1210, Carna Biosciences, 08-115), EGFR T790M/L858R kinase domain (aa.669-1210, Carna Biosciences, 08-510) and EGFR L858R kinase domain (aa.669-1210, Carna Biosciences, 08-502) in assays based on time-resolved fluorescence-resonance energy transfer methodology. The assay was carried out in 384-well low volume black plate in a reaction mixture containing EGFR kinases, 20 LM for EGFR WT and T790M/L858R, and 125 LM for EGFR L858R), biotin-TK substrate and 0-5 LM compounds in buffer containing 50 mM HEPES pH7.5, 10 mM MgCl2, 1 mM EGTA, 0.01% Brij-35, 2.5 mM DTT, 0.1% BSA. The kinase was incubated with the compounds disclosed herein at room temperature for 120 minutes and the reaction was initiated by the addition of ATP and biotin-TK substrate. After reaction at room temperature for 30 minutes, an equal volume of stop/detection solution was added according to the manufacture's instruction (CisBio Bioassays). The stop/detection solution contained TK-Antibody-Cryptate and Streptavidin-XL665 in buffer containing 25 mM Tris pH7.4, 400 mM KF, 50 mM EDTA, 0.01% BSA, 0.01% Triton X-100. Plates were sealed and incubated at room temperature for 1 hour, and the TR-FRET signals were read on BMG PHERAstar FS instrument. The IC50 of an inhibitor was derived from fitting the % inhibition data at each compound concentration to the four-parameter logistic equation by Graphpad Prism software.

A further test has as its target wild type B-Raf (Homo sapiens (Human), UniProt P15056). The test can be described thus: WT BRaf IC50 assay, TR-FRET. Details: Braf-WT Km ATP, % at 100 nM: scale not given here. The following applies: for pIC50: Km ATP ([…] ATP), read-out: IC50 Braf-WT Km ATP; for Braf-WT Km ATP, % at 100 nM: at 100 nM compound. As to the method: WT BRaf IC50 Assay Protocol
Compounds disclosed herein were tested against wild type B-Raf (PV3848, from Invitrogen) in a time-resolved fluorescence energy transfer assay. […] The enzyme was incubated with the compounds disclosed herein at room temperature for 120 minutes and the reactions were initiated by the addition of ATP and GST-MEK1. After incubating at room temperature for 60 minutes, an equal volume of stop buffer containing 25 mM Tris pH7.4, 400 mM KF, 50 mM EDTA, 0.1% BSA, 0.01% Triton X-100, 1 test of Eu3+Cryptate-conjugated rabbit polyclonal antibody anti-Phospho MEK1/2 (Ser217/221) and 1 test of d2-conjugated mouse monoclonal antibody anti-glutathione S-transferase was added to stop the reactions. Plates were sealed and incubated at room temperature for 1.5 hours, and then the TR-FRET signals were read on BMG PHERAstar FS instrument. The IC50 for each compound was calculated by non linear regression by Graphpad Prism software.

Another test deals with EGFR L858R kinase domain (Homo sapiens (Human), UniProt P00533, L858R). Briefly: EGFR enzymatic assay, TR-FRET, EGFR L858R. As to the method: as §1
In a further test the target is C-Raf (Y340D/Y341D) (Homo sapiens (Human), UniProt P04049, Y340D/Y341D). The test can be described thus: Raf IC50 assay, TR-FRET, C-Raf (Y340D/Y341D). Particulars: 0.1 mM ATP. As to the method: Compounds disclosed herein were tested against B-Raf (V600E) (PV3849, from Invitrogen) or C-Raf (Y340D/Y341D) (PV3805, from Invitrogen) in a time-resolved fluorescence energy transfer assay. The assay was carried out in reactions (10 μL) containing 0.0625 nM B-Raf or 0.5 nM C-Raf, 25 mM Tris pH7.4, 10 mM MgCl2, 0.5 mM EGTA, 0.5 mM Na3VO4, 5 mM beta-glycerophosphate, 0.01% Triton X-100, 2.5 mM DTT, 0.1% BSA, 0.1 mM ATP, 13.7 nM GST-tagged MEK1 (Full-length protein with K97R mutation, recombinant protein purified from bacterial expression system) and 0-5 μM compounds disclosed herein (final concentration of 1% DMSO). The enzyme was incubated with the compounds disclosed herein at room temperature for 60 minutes and the reactions were initiated by the addition of ATP and GST-MEK1. After reaction at room temperature for 60 minutes, an equal volume of stop/detection solution was added according to the manufacture's instruction (CisBio Bioassays). The stop/detection solution contained Eu^3+ cryptate-conjugated anti-phospho MEK1/2 (Ser217/221) rabbit polyclonal antibody and d2-conjugated anti-GST mouse monoclonal antibody in buffer containing 25 mM Tris pH7.4, 400 mM KF, 50 mM EDTA, 0.01% BSA and 0.01% Triton X-100. Plates were sealed and incubated at room temperature for 2 hours, and the TR-FRET signals (ratio of fluorescence emission at 665 nm over emission at 620 nm with excitation at 337 nm wavelength) were recorded on a PHERAstar FS plate reader (BMG Labtech). Phosphorylation of MEK1 led to the binding of anti-phospho-MEK1/2 antibody to GST-MEK1 protein that place fluorescent donor (Eu^3+ crypate) in close proximity to the accepter d2 on the anti-GST antibody, thus resulting in a high degree of fluorescence resonance energy transfer from the donor fluorophore (at 620 nm) to the acceptor fluorophore (at 665 nm). […] The IC50 for each compound was derived from fitting the dose-response % inhibition data to the four-parameter logistic model by Graphpad Prism software.
(TR-FRET usually uses a lanthanide donor and a delayed reading to cut background.)

The target of test [1] is EGFR T790M/L858R kinase domain (Homo sapiens (Human), UniProt P00533, L858R/T790M). Briefly: EGFR enzymatic assay, TR-FRET, EGFR T790M/L858R. As to the method: as §1
The target of the next test is B-Raf (V600E) (Homo sapiens (Human), UniProt P15056, V600E). The test can be described thus: Raf IC50 assay, TR-FRET, B-Raf (V600E). Particulars: 0.1 mM ATP; read-out: IC50 BRAF-V600E. The protocol:
The enzyme was incubated with the compounds disclosed herein at room temperature for 60 minutes and the reactions were initiated by the addition of ATP and GST-MEK1. After reaction at room temperature for 60 minutes, an equal volume of stop/detection solution was added according to the manufacture's instruction (CisBio Bioassays). […] The IC50 for each compound was derived from fitting the dose-response % inhibition data to the four-parameter logistic model by Graphpad Prism software.

Structures are written as SMILES. pIC50: −log10 of the molar value.

Sequence of B-Raf (V600E) (P15056 whole entry V600E): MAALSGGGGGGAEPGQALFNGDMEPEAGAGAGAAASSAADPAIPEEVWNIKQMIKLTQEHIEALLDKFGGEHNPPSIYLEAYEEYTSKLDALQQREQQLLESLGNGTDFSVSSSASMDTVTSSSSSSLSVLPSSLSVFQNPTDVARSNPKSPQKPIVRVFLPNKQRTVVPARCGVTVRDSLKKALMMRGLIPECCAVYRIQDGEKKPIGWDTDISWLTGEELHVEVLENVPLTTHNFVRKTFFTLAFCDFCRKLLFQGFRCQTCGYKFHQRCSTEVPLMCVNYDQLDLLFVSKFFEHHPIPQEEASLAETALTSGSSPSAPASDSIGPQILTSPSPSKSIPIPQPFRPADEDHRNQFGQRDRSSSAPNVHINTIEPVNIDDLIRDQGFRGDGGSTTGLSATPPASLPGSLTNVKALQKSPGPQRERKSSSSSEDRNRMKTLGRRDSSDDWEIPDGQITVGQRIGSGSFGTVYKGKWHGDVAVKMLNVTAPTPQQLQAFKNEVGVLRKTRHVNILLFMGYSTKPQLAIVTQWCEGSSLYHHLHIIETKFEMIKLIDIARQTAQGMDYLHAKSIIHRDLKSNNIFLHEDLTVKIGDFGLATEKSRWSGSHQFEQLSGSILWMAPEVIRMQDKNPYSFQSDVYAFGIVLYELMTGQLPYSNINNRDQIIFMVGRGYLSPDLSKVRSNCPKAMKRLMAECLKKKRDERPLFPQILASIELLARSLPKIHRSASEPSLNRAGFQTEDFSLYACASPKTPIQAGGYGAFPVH
Sequence of EGFR L858R kinase domain (P00533 669-1210 L858R): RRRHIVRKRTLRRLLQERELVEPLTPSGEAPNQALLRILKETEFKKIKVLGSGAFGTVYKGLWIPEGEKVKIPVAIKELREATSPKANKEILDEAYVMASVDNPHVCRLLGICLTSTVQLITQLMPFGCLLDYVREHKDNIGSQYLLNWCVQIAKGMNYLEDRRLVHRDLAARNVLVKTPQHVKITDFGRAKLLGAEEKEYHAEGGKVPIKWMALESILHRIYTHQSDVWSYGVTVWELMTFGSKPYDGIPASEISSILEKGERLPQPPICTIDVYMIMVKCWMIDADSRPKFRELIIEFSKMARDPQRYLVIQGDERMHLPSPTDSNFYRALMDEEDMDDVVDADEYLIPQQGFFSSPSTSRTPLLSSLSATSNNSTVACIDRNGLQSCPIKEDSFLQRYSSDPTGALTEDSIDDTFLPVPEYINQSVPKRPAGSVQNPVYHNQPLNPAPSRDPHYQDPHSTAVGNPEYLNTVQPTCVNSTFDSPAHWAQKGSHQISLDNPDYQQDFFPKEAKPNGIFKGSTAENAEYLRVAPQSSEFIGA
Sequence of C-Raf (Y340D/Y341D) (P04049 whole entry Y340D/Y341D): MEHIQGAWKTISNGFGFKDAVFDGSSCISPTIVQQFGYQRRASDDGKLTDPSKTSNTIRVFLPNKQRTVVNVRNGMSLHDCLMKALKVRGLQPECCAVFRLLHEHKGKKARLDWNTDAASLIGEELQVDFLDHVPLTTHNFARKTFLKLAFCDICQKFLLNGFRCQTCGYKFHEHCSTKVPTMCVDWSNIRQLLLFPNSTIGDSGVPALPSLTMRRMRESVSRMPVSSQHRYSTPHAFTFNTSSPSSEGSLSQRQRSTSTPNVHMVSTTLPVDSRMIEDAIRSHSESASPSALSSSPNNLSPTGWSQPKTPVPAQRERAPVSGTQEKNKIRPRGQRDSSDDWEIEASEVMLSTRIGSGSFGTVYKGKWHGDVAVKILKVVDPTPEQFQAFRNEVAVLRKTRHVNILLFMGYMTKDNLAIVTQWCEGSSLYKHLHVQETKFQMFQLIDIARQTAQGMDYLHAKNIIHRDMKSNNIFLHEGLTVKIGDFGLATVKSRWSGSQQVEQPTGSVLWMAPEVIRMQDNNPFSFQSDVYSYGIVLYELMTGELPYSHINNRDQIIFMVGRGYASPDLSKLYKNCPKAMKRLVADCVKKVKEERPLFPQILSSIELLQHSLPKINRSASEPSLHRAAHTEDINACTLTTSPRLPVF
Sequence of EGFR T790M/L858R kinase domain (P00533 669-1210 T790M/L858R): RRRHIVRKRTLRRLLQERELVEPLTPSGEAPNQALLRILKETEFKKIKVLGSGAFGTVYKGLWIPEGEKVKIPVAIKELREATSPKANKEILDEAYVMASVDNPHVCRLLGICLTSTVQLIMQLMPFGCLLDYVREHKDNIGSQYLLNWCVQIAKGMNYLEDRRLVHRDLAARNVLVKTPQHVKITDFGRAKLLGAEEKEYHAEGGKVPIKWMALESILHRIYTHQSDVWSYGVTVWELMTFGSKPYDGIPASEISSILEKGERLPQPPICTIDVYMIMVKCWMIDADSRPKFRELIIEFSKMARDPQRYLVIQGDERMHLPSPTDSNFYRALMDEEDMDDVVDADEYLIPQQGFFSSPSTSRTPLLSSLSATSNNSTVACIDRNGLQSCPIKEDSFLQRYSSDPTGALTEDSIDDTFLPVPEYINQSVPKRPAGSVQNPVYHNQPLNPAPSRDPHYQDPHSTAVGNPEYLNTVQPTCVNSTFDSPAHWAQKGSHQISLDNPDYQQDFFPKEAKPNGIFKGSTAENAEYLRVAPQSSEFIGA
Sequence of wild type B-Raf (P15056 whole entry): as the sequence (P15056 whole entry V600E) above, with E600V counted along it
Sequence of WT EGFR kinase domain (P00533 669-1210): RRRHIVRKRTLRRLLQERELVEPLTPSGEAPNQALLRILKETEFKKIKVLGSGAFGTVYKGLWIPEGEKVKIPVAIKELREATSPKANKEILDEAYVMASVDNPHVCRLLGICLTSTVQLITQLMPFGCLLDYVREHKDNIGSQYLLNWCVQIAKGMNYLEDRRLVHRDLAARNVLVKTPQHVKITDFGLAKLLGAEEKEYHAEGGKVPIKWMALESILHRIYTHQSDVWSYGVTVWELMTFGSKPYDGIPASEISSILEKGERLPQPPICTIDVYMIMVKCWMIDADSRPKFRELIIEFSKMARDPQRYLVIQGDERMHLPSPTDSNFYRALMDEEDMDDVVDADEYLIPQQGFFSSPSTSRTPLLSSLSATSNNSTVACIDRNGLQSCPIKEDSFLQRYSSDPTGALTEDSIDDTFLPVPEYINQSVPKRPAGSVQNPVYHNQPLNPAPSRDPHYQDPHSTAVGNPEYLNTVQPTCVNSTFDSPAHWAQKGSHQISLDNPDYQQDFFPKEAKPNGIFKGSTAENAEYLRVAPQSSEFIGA

A word on the pIC50: it is the IC50 on a negative log10 scale, so that one unit is a factor of ten. Turning to `CCN1CCN(Cc2ccc(C(=O)N[C@H]3[C@@H]4Oc5ccc(Oc6ccnc7c6CCC(=O)N7)cc5[C@H]34)cc2C(F)(F)F)CC1` [Compound 1.33, 4-((4-ethylpiperazin-1-yl)methyl)-N-((1R,1aR,6bR)-5-((7-oxo-5,6,7,8-tetrahydro-1,8-naphthyridin-4-yl)oxy)-1a,6b-dihydro-1H-cyclopropa [b]benzofuran-1-yl)-3-(trifluoromethyl)benzamide], the pIC50 at WT EGFR kinase domain is 6.11; on wild type B-Raf, 7.46; against EGFR L858R kinase domain it was 6.84; against C-Raf (Y340D/Y341D) it was 9.33; in test [1] it was 6.53; at B-Raf (V600E), 7.80.

Turning to `CC(C)(C#N)c1cccc(C(=O)N[C@@H]2[C@H]3Oc4ccc(Oc5ccnc6c5CCC(=O)N6)cc4[C@@H]23)c1` [Compound 1.43], the pIC50 against WT EGFR kinase domain is 7.89; on wild type B-Raf it was 8.36; on EGFR L858R kinase domain it was 7.96; against C-Raf (Y340D/Y341D) it was 9.47; in test [1], 7.42; on B-Raf (V600E), 8.39.

In the case of `O=C1CCc2c(Oc3ccc4c(c3)[C@H]3[C@H](NC(=O)c5ccccc5C(F)(F)F)[C@H]3O4)ccnc2N1` [Compound 1.44], the negative-log IC50 (pIC50) at WT EGFR kinase domain was 6.61; on EGFR L858R kinase domain, 7.20; in test [1] it was below 5.30; at B-Raf (V600E), 8.32. Moreover, on wild type B-Raf, the “Braf-WT Km ATP, % at 100 nM” value is given as 93% at 100 nM.

Regarding `O=C1CCc2c(Oc3ccc4c(c3)[C@H]3[C@H](NC(=O)c5ccc(-c6ccccc6)o5)[C@H]3O4)ccnc2N1` [Compound 1.54], the negative logarithm of the IC50 (pIC50) is 6.49 on WT EGFR kinase domain, 6.82 at EGFR L858R kinase domain, 6.12 in test [1] and 8.31 on B-Raf (V600E). Moreover, at wild type B-Raf, the “Braf-WT Km ATP, % at 100 nM” value is reported as 93% at 100 nM.

Consider `Cc1cccc(F)c1C(=O)N[C@@H]1[C@H]2Oc3ccc(Oc4ccnc5c4CCC(=O)N5)cc3[C@@H]12` [Compound 1.37], for which the negative-log IC50 (pIC50) is 5.91 on WT EGFR kinase domain, 6.28 against EGFR L858R kinase domain, below 5.30 in test [1] and 8.12 at B-Raf (V600E). Moreover, the “Braf-WT Km ATP, % at 100 nM” value on wild type B-Raf is 80% at 100 nM.

For `O=C1CCc2c(Oc3ccc4c(c3)[C@H]3[C@H](NC(=O)c5ccc(CN6CCn7c(nnc7C(F)(F)F)C6)c(C(F)(F)F)c5)[C@H]3O4)ccnc2N1` [Compound 1.14], the pIC50 was 7.70 on wild type B-Raf, 8.77 against C-Raf (Y340D/Y341D) and 7.70 on B-Raf (V600E).

Turning to `N#CC1(c2cccc(C(=O)N[C@@H]3[C@H]4Oc5ccc(Oc6ccnc7c6CCC(=O)N7)cc5[C@@H]34)c2)CC1` [Compound 1.46, 3-(1-cyanocyclopropyl)-N-((1S,1aS,6bS)-5-((7-oxo-5,6,7,8-tetrahydro-1,8-naphthyridin-4-yl)oxy)-1a,6b-dihydro-1H-cyclopropa[b]benzofuran-1-yl)benzamide], the negative logarithm of the IC50 (pIC50) was 7.07 against WT EGFR kinase domain; 8.85 at wild type B-Raf; 7.28 on EGFR L858R kinase domain; 6.50 in test [1]; 8.60 at B-Raf (V600E).

`O=C(/C=C/c1cccc(C(F)(F)F)c1)N[C@@H]1[C@H]2Oc3ccc(Oc4ccnc5c4CCC(=O)N5)cc3[C@@H]12` [Compound 1.53]: the pIC50 is 6.17 against WT EGFR kinase domain, 7.17 at EGFR L858R kinase domain, 5.94 in test [1] and 7.80 on B-Raf (V600E). Further, on wild type B-Raf, the “Braf-WT Km ATP, % at 100 nM” value is on record as 86% at 100 nM.

Consider `O=C1CCc2c(Oc3ccc4c(c3)[C@H]3[C@H](NC(=O)c5cc(C(F)(F)F)ccn5)[C@H]3O4)ccnc2N1` [Compound 1.45, N-((1S,1aS,6bS)-5-((7-oxo-5,6,7,8-tetrahydro-1,8-naphthyridin-4-yl)oxy)-1a,6b-dihydro-1H-cyclopropa[b]benzofuran-1-yl)-4-(trifluoromethyl)picolinamide], for which the pIC50 on WT EGFR kinase domain is 8.07; against EGFR L858R kinase domain it was 8.27; in test [1], 6.98; at B-Raf (V600E) it was 8.51. In addition, the “Braf-WT Km ATP, % at 100 nM” value at wild type B-Raf was found to be 101% at 100 nM.

Consider `O=C1CCc2c(Oc3ccc4c(c3)[C@H]3[C@H](NC(=O)c5ccc(F)c(F)c5)[C@H]3O4)ccnc2N1` [Compound 1.41], for which the negative logarithm of the IC50 (pIC50) on WT EGFR kinase domain is 7.23; against EGFR L858R kinase domain it was 7.54; in test [1], 6.19; at B-Raf (V600E), 8.92. Besides, the “Braf-WT Km ATP, % at 100 nM” value on wild type B-Raf is recorded as 100% at 100 nM.

Turning to `O=C1CCc2c(Oc3ccc4c(c3)[C@H]3[C@H](NC(=O)c5ccccc5F)[C@H]3O4)ccnc2N1` [Compound 1.38], the negative logarithm of the IC50 (pIC50) is 6.37 against WT EGFR kinase domain, 7.10 against EGFR L858R kinase domain, 5.50 in test [1] and 8.33 on B-Raf (V600E). Besides, the “Braf-WT Km ATP, % at 100 nM” value at wild type B-Raf is on record as 84% at 100 nM.

Take `O=C1CCc2c(Oc3ccc4c(c3)[C@H]3[C@H](NC(=O)c5ccc(F)cc5)[C@H]3O4)ccnc2N1` [Compound 1.36]: the pIC50 is 7.03 on WT EGFR kinase domain, 7.22 on EGFR L858R kinase domain, 6.27 in test [1] and 8.85 on B-Raf (V600E). Further, on wild type B-Raf, the “Braf-WT Km ATP, % at 100 nM” value turned out to be 96% at 100 nM.

For the molecule `CN1CCC(Oc2ccc(C(=O)N[C@@H]3[C@H]4Oc5ccc(Oc6ccnc7c6CCC(=O)N7)cc5[C@@H]34)cc2C(F)(F)F)CC1` [Compound 1.51, 4-((1-methylpiperidin-4-yl)oxy)-N-((1S,1aS,6bS)-5-((7-oxo-5,6,7,8-tetrahydro-1,8-naphthyridin-4-yl)oxy)-1a,6b-dihydro-1H-cyclopropa[b]benzofuran-1-yl)-3-(trifluoromethyl)benzamide], the pIC50 on wild type B-Raf was 8.01; against C-Raf (Y340D/Y341D), 8.79; at B-Raf (V600E), 7.85.

With `N[C@@H]1[C@H]2Oc3ccc(Oc4ccnc5c4CCC(=O)N5)cc3[C@@H]12` [Intermediate I, 5-(((1S,1aS,6bS)-1-amino-1a,6b-dihydro-1H-cyclopropa[b]benzofuran-5-yl)oxy)-3,4-dihydro-1,8-naphthyridin-2(1H)-one], at wild type B-Raf, the “Braf-WT Km ATP, % at 100 nM” value is on record as −2% at 100 nM. In addition, the figures for the negative-log IC50 (pIC50) against C-Raf (Y340D/Y341D) and at B-Raf (V600E) were 6.56 and 5.55, respectively.
